Test results: patent publication US9724396B2, “Use of antagonists of growth hormone or growth hormone receptor to prevent or treat stress-sensitive psychiatric illness” (Massachusetts Institute of Technology, priority 2013, dated 2017)

Tests used:
endogenous GH = test: Auditory fear conditioning after intra-BLA AAV (GHA or GFP) and 10 days of systemic MK-0677 or saline; type: in vivo, rat; settings: 10 days MK-0677 or saline, tested 48 h after conditioning
Method: (§1) Animals were killed 24 h after the last stress or handling session and the basolateral complex of the amygdala (BLA) was dissected. Growth hormone (GH) levels in the BLA were measured using enzyme-linked immunosorbent assay (ELISA). b) The herpes simplex virus (HSV)-based viral vectors expressing either green fluorescent protein (GFP; CON) or recombinant rat GH (rGH) was infused in the BLA and expression was assessed after behavioral testing was complete. Representative GFP expression from two rats is shown. c) Auditory Pavlovian fear conditioning was performed 3 days after HSV virus infusions. d) Long-term fear memory was assessed by placing the animals in a novel context and measuring conditional freezing following tone presentation 48 h after the conditioning session. e) Short-term BLA cell cultures were used to measure GH release following treatment with a ghrelin receptor agonist (MK) or vehicle (VEH). f) Adeno-associated virus (AAV) constructs were generated to examine the contribution of GH-mediated signaling in the BLA to ghrelin-induced potentiation of fear. g) Following infusion of the AAVs into the BLA and recovery, rats received 10 days of systemic injection of either a ghrelin receptor agonist (MK) or vehicle (VEH). […]

ghrelin receptor = target: T1, ghrelin receptor (Rattus norvegicus, UniProt O08725); test: GH release from short-term BLA cell cultures after ghrelin receptor stimulation; type: cell-based; settings: versus vehicle
T1 construct: short-term cultures were generated of BLA cells and measured GH protein in the media following treatment with either MK-0677 or vehicle; endogenous in cells; host or cells: short-term cultures of basolateral amygdala (BLA) cells
Method: as §1

GH = settings: Varga et al, Proc. Natl. Acad. Sci. USA 1999; cited from earlier work

T1 sequence (O08725 whole entry): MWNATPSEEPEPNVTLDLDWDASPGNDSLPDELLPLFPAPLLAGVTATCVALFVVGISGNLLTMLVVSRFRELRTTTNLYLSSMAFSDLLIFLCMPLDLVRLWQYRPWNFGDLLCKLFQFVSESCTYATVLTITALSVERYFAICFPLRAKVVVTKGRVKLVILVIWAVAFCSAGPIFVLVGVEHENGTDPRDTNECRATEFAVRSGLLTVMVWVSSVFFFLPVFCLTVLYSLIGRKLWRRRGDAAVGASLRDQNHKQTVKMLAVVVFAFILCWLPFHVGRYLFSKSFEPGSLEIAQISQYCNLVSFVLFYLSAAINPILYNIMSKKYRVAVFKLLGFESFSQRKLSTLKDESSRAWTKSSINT

release of GH into the media (ghrelin receptor)	Compound	long-term auditory fear memory (endogenous GH)	antagonistic activity (GH)
significantly elevated release of GH	CC(C)(N)C(=O)N[C@H](COCc1ccccc1)C(=O)N1CCC2(CC1)CN(S(C)(=O)=O)c1ccccc12 [MK-0677]	fear-enhancing effects	
	[PhAc-Tyr1,D-Arg2,Phe(4-Cl)6, Har9,Tyr(Me)10,Abu15,Nle27,D-Arg28,Har29]hGH-RH(1-29)NH2 [JV-1-38]		high and or protracted antagonistic activity
	[PhAc-Tyr1,D-Arg2,Phe(4-Cl)6,Abu15,Nle27, D-Arg28,Har29]hGH-RH(1-29)NH2 [MZ-6-55]		high and or protracted antagonistic activity
	[PhAc-Tyr1,DArg2, Phe(4-Cl)6,Arg9,Abu15,Nle27,D-Arg28,Har29]hGH-RH(1-29)NH2 [JV-1-36]		high and or protracted antagonistic activity
	[PhAc-Tyr1,DArg2, Phe(4-Cl)6,Arg9,Abu15,Nle27,D-Arg29]hGH-RH(1-29)NH2 [JV-1-10]		high and or protracted antagonistic activity
